Reference: the NIST ThermoML archive (doi:10.1021/acs.jced.6b00455)

Assay: mn = molality of the nth substance listed, in mol/kg
Conditions: 101 kPa, Liquid, Alternating current cell with electrodes

C[N+](C)(C)CCO.O=C([O-])C(F)(F)C(F)(F)C(F)(F)C(F)(F)C(F)(F)C(F)(F)F [(2-hydroxyethyl)trimethylammonium perfluoroheptanoate] + O
Conditions | electrical conductivity [S/m]
293.15 K, m1 = 0.000135 | 0.0009
293.15 K, m1 = 0.000317 | 0.002
293.15 K, m1 = 0.000535 | 0.0035
293.15 K, m1 = 0.000719 | 0.0047
293.15 K, m1 = 0.000905 | 0.0059
293.15 K, m1 = 0.001097 | 0.0071
293.15 K, m1 = 0.001295 | 0.0083
293.15 K, m1 = 0.001556 | 0.01
293.15 K, m1 = 0.001738 | 0.0112
293.15 K, m1 = 0.001921 | 0.0124
293.15 K, m1 = 0.002361 | 0.0151
293.15 K, m1 = 0.002553 | 0.0164
293.15 K, m1 = 0.002745 | 0.0179
293.15 K, m1 = 0.002967 | 0.0189
293.15 K, m1 = 0.003167 | 0.0201
293.15 K, m1 = 0.003365 | 0.021
293.15 K, m1 = 0.003617 | 0.0224
293.15 K, m1 = 0.003811 | 0.0234
293.15 K, m1 = 0.003989 | 0.0244
293.15 K, m1 = 0.004235 | 0.0259
293.15 K, m1 = 0.004463 | 0.0271
293.15 K, m1 = 0.004647 | 0.0283
293.15 K, m1 = 0.005243 | 0.0318
293.15 K, m1 = 0.00563 | 0.0339
293.15 K, m1 = 0.006196 | 0.037
293.15 K, m1 = 0.006659 | 0.0405
293.15 K, m1 = 0.006813 | 0.0416
293.15 K, m1 = 0.007215 | 0.0437
293.15 K, m1 = 0.007673 | 0.0468
293.15 K, m1 = 0.007989 | 0.0489
298.15 K, m1 = 0.000182 | 0.0012
298.15 K, m1 = 0.000351 | 0.0023
298.15 K, m1 = 0.000524 | 0.0036
298.15 K, m1 = 0.000696 | 0.0048
298.15 K, m1 = 0.000849 | 0.0059
298.15 K, m1 = 0.001022 | 0.0071
298.15 K, m1 = 0.001139 | 0.0079
298.15 K, m1 = 0.001334 | 0.0092
298.15 K, m1 = 0.001552 | 0.0107
298.15 K, m1 = 0.001763 | 0.0123
298.15 K, m1 = 0.001988 | 0.014
298.15 K, m1 = 0.002225 | 0.0158
298.15 K, m1 = 0.002433 | 0.0172
298.15 K, m1 = 0.002631 | 0.0186
298.15 K, m1 = 0.00283 | 0.0198
298.15 K, m1 = 0.003092 | 0.0212
298.15 K, m1 = 0.003297 | 0.0222
298.15 K, m1 = 0.003578 | 0.0237
298.15 K, m1 = 0.003893 | 0.0254
298.15 K, m1 = 0.004239 | 0.0271
298.15 K, m1 = 0.004535 | 0.0288
298.15 K, m1 = 0.004786 | 0.0303
298.15 K, m1 = 0.00505 | 0.0318
298.15 K, m1 = 0.005319 | 0.0333
298.15 K, m1 = 0.005529 | 0.0345
298.15 K, m1 = 0.005823 | 0.0361
303.15 K, m1 = 0.000162 | 0.0014
303.15 K, m1 = 0.000327 | 0.0027
303.15 K, m1 = 0.000396 | 0.0031
303.15 K, m1 = 0.000558 | 0.0045
303.15 K, m1 = 0.000597 | 0.0046
303.15 K, m1 = 0.000902 | 0.0068
303.15 K, m1 = 0.001056 | 0.0084
303.15 K, m1 = 0.001145 | 0.0088
303.15 K, m1 = 0.001333 | 0.0102
303.15 K, m1 = 0.001525 | 0.0116
303.15 K, m1 = 0.001575 | 0.0126
303.15 K, m1 = 0.001779 | 0.0138
303.15 K, m1 = 0.001975 | 0.0164
303.15 K, m1 = 0.00219 | 0.0173
303.15 K, m1 = 0.002392 | 0.0187
303.15 K, m1 = 0.002573 | 0.0201
303.15 K, m1 = 0.002757 | 0.0218
303.15 K, m1 = 0.003 | 0.0233
303.15 K, m1 = 0.003295 | 0.0254
303.15 K, m1 = 0.003479 | 0.0262
303.15 K, m1 = 0.003569 | 0.0269
303.15 K, m1 = 0.00377 | 0.0282
303.15 K, m1 = 0.00395 | 0.0297
303.15 K, m1 = 0.004136 | 0.0313
303.15 K, m1 = 0.004356 | 0.033
303.15 K, m1 = 0.00458 | 0.0343
303.15 K, m1 = 0.004761 | 0.0357
303.15 K, m1 = 0.005083 | 0.0368
308.15 K, m1 = 0.000308 | 0.0028
308.15 K, m1 = 0.001088 | 0.0096
308.15 K, m1 = 0.001458 | 0.0131
308.15 K, m1 = 0.001696 | 0.0151
308.15 K, m1 = 0.001932 | 0.0174
308.15 K, m1 = 0.002314 | 0.0204
308.15 K, m1 = 0.002768 | 0.0243
308.15 K, m1 = 0.002948 | 0.0255
308.15 K, m1 = 0.003212 | 0.0279
308.15 K, m1 = 0.003414 | 0.0297
308.15 K, m1 = 0.003749 | 0.0324
308.15 K, m1 = 0.004024 | 0.0348
308.15 K, m1 = 0.004369 | 0.037
308.15 K, m1 = 0.004622 | 0.0392
308.15 K, m1 = 0.004874 | 0.0413
308.15 K, m1 = 0.00517 | 0.0438
308.15 K, m1 = 0.005462 | 0.0462
313.15 K, m1 = 0.000152 | 0.0016
313.15 K, m1 = 0.000311 | 0.0032
313.15 K, m1 = 0.000509 | 0.005
313.15 K, m1 = 0.000756 | 0.0072
313.15 K, m1 = 0.000952 | 0.0094
313.15 K, m1 = 0.001127 | 0.0112
313.15 K, m1 = 0.001383 | 0.0138
313.15 K, m1 = 0.001573 | 0.0155
313.15 K, m1 = 0.001796 | 0.0179
313.15 K, m1 = 0.001971 | 0.0201
313.15 K, m1 = 0.002233 | 0.0227
313.15 K, m1 = 0.002359 | 0.0239
313.15 K, m1 = 0.002573 | 0.0262
313.15 K, m1 = 0.002937 | 0.0297
313.15 K, m1 = 0.003135 | 0.0321
313.15 K, m1 = 0.003363 | 0.0336
313.15 K, m1 = 0.003618 | 0.0359
313.15 K, m1 = 0.003798 | 0.0379
313.15 K, m1 = 0.003983 | 0.0396
313.15 K, m1 = 0.004151 | 0.0413
313.15 K, m1 = 0.004487 | 0.0444
313.15 K, m1 = 0.004771 | 0.0466
313.15 K, m1 = 0.00507 | 0.0489
313.15 K, m1 = 0.005297 | 0.0508
313.15 K, m1 = 0.005682 | 0.0543
